Values quoted from earlier work as cited in patent publication US6462088B1, “Disinfecting preparation containing chlorine in alcohol” (priority 1998, dated 2002).

Details: 25° C., aqueous solution; for E0 standard oxidation potential, Ref. b): Ullmann's Encyclopedia

Row | Compound | E0 standard oxidation potential, Ref. b) [V] | E0 standard oxidation potential, Ref. a) (Rice and Gomez-Taylor) [V]
1 | Hypochlorite ion | 0.90 | 
2 | OCl [Hypochlorous acid] | 1.50 | 1.49
